Experiment: Storage stability studies (Example 27): appearance, PXRD, HPLC purity, impurities and chiral purity
Assay type: physicochemical
Settings: for Chiral Purity / Highest Impurity / Purity / Sulfide / Sulfone: HPLC
Description: A high performance liquid chromatography (HPLC) method for measuring the chemical purity of dexlansoprazole or a compound of formula (VII) of the present application, and for determination of their corresponding impurities, involves the use of a YMC-PAK ODS-A 100×4.6, 3 μm or equivalent column.
A high performance liquid chromatography method useful for measuring the enantiomeric purity of dexlansoprazole or a compound of formula (VII) of the present application involves the use of a Chiralpak-IC, 250×4.6 mm or equivalent column.
Products from certain of the above examples and a crystalline dexlansoprazole, prepared according to Example 2 of U.S. Pat. No. 6,462,058, were tested for their storage stabilities. The samples were stored in tied clear polyethylene bags that were placed in sealed black polyethylene bags along with a silica gel desiccant pouch filled with nitrogen, and finally the black bags were placed into triple laminated foil bags along with a silica gel pouch and then sealed and stored in HDPE drum packages under the conditions noted in the following results tables. Samples were analyzed before storage, at intervals during storage, and after storage.
Samples were analyzed by HPLC for chemical purity, for:
a “sulfide” impurity, having a chemical name 2-[[{4-(2,2,2-trifluoroethoxy)-3-methylpyridine-2-yl}methyl]thio]-1H-benzimidazole and the following structure;
a “sulfone” impurity, having a chemical name 2-[[{4-(2,2,2-trifluoroethoxy)-3-methylpyridine-2-yl}methyl]sulfonyl]-1H-benzimidazole and the following structure;
and for chiral purity. Also given in the tables is the concentration of the highest unidentified impurity, as determined by HPLC, and the PXRD analysis result. All percentages given below are expressed on a weight basis.

[1] = Initial Analysis, before storage

Cc1c(OCC(F)(F)F)ccnc1C[S@@+]([O-])c1nc2ccccc2[nH]1 [Example 8, dexlansoprazole]
Appearance (After 1 Week at 2-8° C.): Light yellow
PXRD (After 1 Week at 2-8° C.): Amorphous
Chiral Purity (After 1 Week at 2-8° C.): 99.89%
Highest Impurity (After 1 Week at 2-8° C.): 0.13%
Purity (After 1 Week at 2-8° C.): 97.21%
Sulfide (After 1 Week at 2-8° C.): 1.83%
Sulfone (After 1 Week at 2-8° C.): 0.63%
Appearance (After 1 Week at 25-35° C.): Light yellow
PXRD (After 1 Week at 25-35° C.): Amorphous
Chiral Purity (After 1 Week at 25-35° C.): 99.86%
Highest Impurity (After 1 Week at 25-35° C.): 0.14%
Purity (After 1 Week at 25-35° C.): 97.12%
Sulfide (After 1 Week at 25-35° C.): 1.84%
Sulfone (After 1 Week at 25-35° C.): 0.68%
Appearance (After 2 Weeks at 2-8° C.): Light yellow
PXRD (After 2 Weeks at 2-8° C.): Amorphous
Chiral Purity (After 2 Weeks at 2-8° C.): 99.87%
Highest Impurity (After 2 Weeks at 2-8° C.): 0.11%
Purity (After 2 Weeks at 2-8° C.): 97.21%
Sulfide (After 2 Weeks at 2-8° C.): 1.79%
Sulfone (After 2 Weeks at 2-8° C.): 0.63%
Appearance (After 2 Weeks at 25-35° C.): Light yellow
PXRD (After 2 Weeks at 25-35° C.): Amorphous
Chiral Purity (After 2 Weeks at 25-35° C.): 99.86%
Highest Impurity (After 2 Weeks at 25-35° C.): 0.11%
Purity (After 2 Weeks at 25-35° C.): 97.23%
Sulfide (After 2 Weeks at 25-35° C.): 0.63%
Sulfone (After 2 Weeks at 25-35° C.): 1.78%
Appearance (After 3 Weeks at 2-8° C.): Light yellow
PXRD (After 3 Weeks at 2-8° C.): Amorphous
Chiral Purity (After 3 Weeks at 2-8° C.): 99.85%
Highest Impurity (After 3 Weeks at 2-8° C.): 0.12%
Purity (After 3 Weeks at 2-8° C.): 97.27%
Sulfide (After 3 Weeks at 2-8° C.): 1.77%
Sulfone (After 3 Weeks at 2-8° C.): 0.62%
Appearance (After 3 Weeks at 25-35° C.): Light yellow
PXRD (After 3 Weeks at 25-35° C.): Amorphous
Chiral Purity (After 3 Weeks at 25-35° C.): 99.84%
Highest Impurity (After 3 Weeks at 25-35° C.): 0.15%
Purity (After 3 Weeks at 25-35° C.): 97%
Sulfide (After 3 Weeks at 25-35° C.): 1.79%
Sulfone (After 3 Weeks at 25-35° C.): 0.63%
Appearance [1]: Light yellow
PXRD [1]: Amorphous
Chiral Purity [1]: 99.86%
Highest Impurity [1]: 0.24%
Purity [1]: 97.14%
Sulfide [1]: 1.77%
Sulfone [1]: 0.61%

Cc1c(OCC(F)(F)F)ccnc1C[S@@+]([O-])c1nc2ccccc2[nH]1 [Example 16 (A), dexlansoprazole]
Appearance (After 1 Week at 2-8° C.): Light brown
PXRD (After 1 Week at 2-8° C.): Amorphous
Chiral Purity (After 1 Week at 2-8° C.): 96.57%
Highest Impurity (After 1 Week at 2-8° C.): 0.09%
Purity (After 1 Week at 2-8° C.): 83.76%
Sulfide (After 1 Week at 2-8° C.): 13.78%
Sulfone (After 1 Week at 2-8° C.): 1.48%
Appearance (After 1 Week at 25-35° C.): Light brown
PXRD (After 1 Week at 25-35° C.): Amorphous
Chiral Purity (After 1 Week at 25-35° C.): 96.56%
Highest Impurity (After 1 Week at 25-35° C.): 0.14%
Purity (After 1 Week at 25-35° C.): 83.03%
Sulfide (After 1 Week at 25-35° C.): 13.83%
Sulfone (After 1 Week at 25-35° C.): 1.55%
Appearance (After 2 Weeks at 2-8° C.): Light brown
PXRD (After 2 Weeks at 2-8° C.): Amorphous
Chiral Purity (After 2 Weeks at 2-8° C.): 96.86%
Highest Impurity (After 2 Weeks at 2-8° C.): 0.17%
Purity (After 2 Weeks at 2-8° C.): 83.6%
Sulfide (After 2 Weeks at 2-8° C.): 13.63%
Sulfone (After 2 Weeks at 2-8° C.): 1.45%
Appearance (After 2 Weeks at 25-35° C.): Light brown
PXRD (After 2 Weeks at 25-35° C.): Amorphous
Chiral Purity (After 2 Weeks at 25-35° C.): 96.49%
Highest Impurity (After 2 Weeks at 25-35° C.): 1.16%
Purity (After 2 Weeks at 25-35° C.): 80.85%
Sulfide (After 2 Weeks at 25-35° C.): 13.8%
Sulfone (After 2 Weeks at 25-35° C.): 1.49%
Appearance (After 3 Weeks at 2-8° C.): Light brown
PXRD (After 3 Weeks at 2-8° C.): Amorphous
Chiral Purity (After 3 Weeks at 2-8° C.): 96.73%
Highest Impurity (After 3 Weeks at 2-8° C.): 0.07%
Purity (After 3 Weeks at 2-8° C.): 83.9%
Sulfide (After 3 Weeks at 2-8° C.): 13.69%
Sulfone (After 3 Weeks at 2-8° C.): 1.5%
Appearance (After 3 Weeks at 25-35° C.): Light brown
PXRD (After 3 Weeks at 25-35° C.): Amorphous
Chiral Purity (After 3 Weeks at 25-35° C.): 96.67%
Highest Impurity (After 3 Weeks at 25-35° C.): 0.8%
Purity (After 3 Weeks at 25-35° C.): 82.07%
Sulfide (After 3 Weeks at 25-35° C.): 13.69%
Sulfone (After 3 Weeks at 25-35° C.): 1.51%
Appearance [1]: Light brown
PXRD [1]: Amorphous
Chiral Purity [1]: 96.59%
Highest Impurity [1]: 0.08%
Purity [1]: 84.42%
Sulfide [1]: 13.43%
Sulfone [1]: 1.45%

Source: patent US20110028518A1, “DEXLANSOPRAZOLE PROCESS AND POLYMORPHS” (DR. REDDY'S LABORATORIES LTD., priority 2008, published 2011)
